Assay results reported in patent publication EP0101786A1, “Use of a benzoisothiazoline derivative for the manufacture of a medicament against thrombosis and platelet aggregation” (GREEN CROSS CORPORATION, priority 1982, dated 1984).

Assays:
[1] = Acute toxicity test, oral, Litchfield-Wilcoxon method; settings: mouse, in vivo, male ddy mice, suspension in distilled water with 0.5 % carboxymethyl cellulose
Experimental: A group of 10 male ddy mice each weighing […] were subject to an acute toxicity test with BIT (1) (R=n-C3H7, X-Cl) which was administered to the mice orally as suspensions in distilled water for injection that contained 0.5 % of carboxymethyl cellulose.

[2] = system: platelet aggregation initiated by promoter ADP (platelet-rich plasma); test: Inhibition of ADP-induced platelet aggregation (aggregometer, nephelometry); format: cell-based; settings: 2 min; for inhibition at 3 µg/mL: final conc. 3.0 γ/ml; for inhibition at 10 µg/mL: final conc. 10 γ/ml (10.0 γ/ml)
Experimental: The inhibitory activity of BIT (1) compounds against platelet aggregation initiated by promoter ADP was determined for various amounts of the BIT (1) compounds. […] Silicon-coated cuvettes on the Aggregometer were filled with 0.8 ml of diluted platelet-rich plasma (containing 300,000 to 400,000 platelets per cmm) and 0.1 ml of solutions of the BIT (1) compounds listed in Table 1 having different concentration (0.3 y/ml, 1.0 γ/ml and 3.0 y/ml as dissolved in 100% alcohol), as well as adenosine (20 y/ml and 100 y/ml) and aspirin (500 y/ml) were added. Following 2-minute incubation, ADP was added to give a final concentration of 10^-5 M. The final volume of each sample was 1 ml. The process of platelet aggregation was monitored with the recorder pen which traced aggregation curves.
The percent inhibition of aggregation was calculated by the following formula: [formula] wherein M represents light transmittance for maximum aggregation in 100 % ethanol (Control);
D represents light transmittance for maximum aggregation in the specific sample.

[3] = system: platelets (platelet-rich plasma, ADP-aggregated); test: Acceleration of platelet disaggregation after ADP-induced maximum aggregation; format: cell-based; settings: 5 minutes after addition, control about 12 %
Experimental: ADP was added to platelet-rich plasma as used in (1) above, and when maximum aggregation was reached, BIT (1) compound (R=n-C3H7, X-Cl) was added to check its ability to accelerate the disaggregation of platelets. In this experiment, the procedure of experiment (1) was repeated except that the BIT (1) was added after the aggregation of platelets occurred. To give final concentrations of 1.0 γ/ml, 3.0 y/ml and 6.0 y/ml as dissolved in 100 % ethanol, 0.1 ml of solutions containing 10 γ/ml, 30 γ/ml and 60 y/ml of BIT (1) were added after maximum platelet aggregation took place. As a control, 100 % ethanol was added instead of the BIT (1). The degree of disaggregation was determined by measuring the absorbance of the test samples 5 minuts after the addition of the BIT (1) as against the absorbance for maximum aggregation in that sample.

[4] = ADP 10^-5 M, 2-minute incubation

In the case of `CCCn1sc2cc(Cl)ccc2c1=O` [BIT (R=n-C3H7) (X=Cl), 6-chloro-2-n-propyl-1,2-benzoisothiazolin-3-one], the LD50 [1] is reported as 6500 mg/kg, the inhibition at 0.3 µg/mL ([2]; final conc. 0.3 γ/ml, ADP 10^-5 M, 2-minute incubation) is reported as 18% and the inhibition at 1 µg/mL ([2]; final conc. 1.0 γ/ml, ADP 10^-5 M, 2-minute incubation) is reported as 43%. It also gave an inhibition at 3 µg/mL [2, 4] of 100%, a disaggregation level ([3]; final concentration 1.0 γ/ml) of 25% and a disaggregation level ([3]; final concentration 3.0 γ/ml) of 47%. It also gave a disaggregation level ([3]; final concentration 6.0 γ/ml) of 64%.

In the case of `CC(=O)Oc1ccccc1C(=O)O` [Aspirin, reference compound], the inhibition at 50 µg/mL ([2]; read-out: Inhibition of platelet aggregation) is reported as 0%.

`O=c1[nH]sc2cc(Cl)ccc12` [BIT (R=H) (X=Cl)] showed an inhibition at 10 µg/mL [2, 4] of 100%.

Work on `CCCCCCn1sc2cc(Cl)ccc2c1=O` [BIT (R=n-C6H13) (X=Cl), 6-chloro-2-n-hexyl-1,2-benzoisothiazolin-3-one] yielded an inhibition at 3 µg/mL [2, 4] of 100%.

For `CCCCCCCCCCn1sc2cc(Cl)ccc2c1=O` [BIT (R=n-C10H21) (X=Cl), 6-chloro-2-n-decyl-1,2-benzoiso-thiazolin-3-one], the inhibition at 3 µg/mL [2, 4] was 100%.

Compound `Nc1ncnc2c1ncn2[C@@H]1O[C@H](CO)[C@@H](O)[C@H]1O` [Adenosine, reference compound] has an inhibition at 2 µg/mL ([2]; final conc. 2 γ/ml, ADP 10^-5 M, 2-minute incubation) of 47% and an inhibition at 10 µg/mL [2, 4] of 62%.
